Laboratory results from paper PMC7466159, “Anti-Metastasis Fascin Inhibitors Decrease the Growth of Specific Subtypes of Cancers” (Cancers, 2020).
Read-outs that look alike come from different tables or passages of the source.

Assays:
[1] = tested on: MDA-MB-231 human triple-negative breast cancer cells; conditions: for inhibition of lung metastasis / IC50, metastasized tumor cells in the lungs: NSG mice, oral; for IC50, metastasized tumor cells in the lungs: six days a week, eight weeks
Description: We used two mouse models. In the first orthotopic spontaneous tumor metastasis mouse model, MDA-MB-231 human triple-negative breast cancer cells were injected into the orthotopic site (the mammary gland) of immuno-deficient NSG mice, and then the metastasis to the lung was monitored (Figure 2A–C). Seven days after the implantation of MDA-MB-231 tumor cells, we orally administered the mice with different concentrations of NP-G2-044 either once a day or twice a day for six days a week. After eight weeks, the mice were sacrificed and examined for metastasis in the lungs. […] Lung tumor metastasis was further verified by a histological analysis of lung sections and stained with hematoxylin and eosin (Figure 2C).
MDA-MB-231 cells (subclone LM2) (1 × 10^5) suspended in PBS-matrigel (v/v, 1:1) were injected subcutaneously into the abdominal mammary gland area of female NSG mice (6- to 8-week old from the Jackson Lab) on day 0 as previously described. Starting on Day 7, NP-G2-044 or the control solvent was given once or twice a day for 6 days every week by gavage until the eighth week. On the first day of the ninth week, the mice were killed.
The numbers of metastatic MDA-MB-231 cells in lungs were determined by a clonogenic assay. The lungs were removed from each mouse once sacrificed, and the resulting cells were suspended and plated with a series of dilutions in 10-cm tissue culture dishes in medium containing 2.0 µg/mL puromycin for clonogenic growth. As these MBA-MB-231 tumor cells were stably transfected with the vector pSuper-puro, the metastasized tumor cells formed foci after 14 days, at which time they were fixed with 4% paraformaldehyde and stained with crystal violet staining solution for counting. For combination treatments with chemotherapy, MDA-MB-231 tumor cells (1 × 10^5) suspended in PBS-matrigel (v/v, 1:1) were injected subcutaneously into the abdominal mammary gland area of mice on Day 0. Starting on Day 0, 7, or 14, NP-G2-044 was given to mice once a day for 6 days every week by oral gavage at 300 mg/kg per mouse. A vehicle solvent was given to the control mice once a day for 6 days every week. Starting on day 14, doxorubicin hydrochloride (MilliporeSigma, St. Louis, MO, USA) (2 mg/kg) and cyclophosphamide monohydrate (MilliporeSigma) (60 mg/kg) were given to mice once a week for four weeks. Primary tumors were removed on day 28. The death of the mice was used as the endpoint.

HT lymphoma cells = test: HT lymphoma model in NSG mice (tumor growth, overall survival); format: in vivo; conditions: 300 mg/kg gavage once a day 5 days every week from day 28, vs control
Description: HT cells (5 × 10^6) suspended in PBS-matrigel (v/v, 1: 1) were subcutaneously injected into NSG mice on day 0. Starting on day 28, NP-G2-044 or the control solvent was given once a day for 5 days every week by gavage at 300 mg kg^−1 per mouse until their death.

U2932 lymphoma cells = test: U2932 lymphoma model in NSG mice (tumor growth, liver metastasis, overall survival); format: in vivo
Description: For the lymphoma model, U2932 cells (5 × 10^6) suspended in PBS-matrigel (v/v, 1:1) were subcutaneously injected into NSG mice on Say 0. Starting on Day 49, NP-G2-044 was given once a day for 5 days every week by gavage at 300 mg kg^−1 per mouse until their death. Starting on Day 49, LY2409881 was given once weekly by intraperitoneal injection at 50 mg kg^−1 per mouse for 8 times. The control solvent was given according to their body weights until their death. […] The primary tumors and livers shown in the figure were dissected on Day 67.

[2] = tested on: NF-κB nuclear translocation in Ly10 cells; test: p65 (NF-κB) nuclear translocation, Western blotting, Ly10; format: cell-based; conditions: 30 µM, 16 h
[3] = tested on: MDA-MB-468 triple-negative breast cancer cells; test: Cell growth assay, MDA-MB-468; format: cell-based; conditions: MDA-MB-468 cells in culture, 10% serum
[4] = tested on: BT-20 triple-negative breast cancer cells; test: Cell growth assay, BT-20; format: cell-based; conditions: BT-20 cells in culture, 10% serum
[5] = tested on: HCC38 triple-negative breast cancer cells; test: Cell growth assay, HCC38; format: cell-based; conditions: HCC38 cells in culture, 10% serum
Ly1 lymphoma cells = test: Cell growth sensitivity, Ly1; format: cell-based
[6] = tested on: NCI-H660 human neuroendocrine prostate cancer cells
Description: To investigate the effect of NP-G2-044 on the overall survival of mice bearing NCI-H660 tumors, NCI-H660 tumor cells were injected into the prostate of male NSG mice. NCI-H660 tumor-bearing mice were randomized into two groups. In the control group, the vehicle solvent was given (marked as the “control” group) (Figure 3F). In the second group, the mice were treated with NP-G2-044 (5 days per week by an oral gavage). NP-G2-044 treatment started on Day 7.
Human neuroendocrine prostate cancer NCI-H660 cells (1 × 10^5) suspended in PBS were injected into the prostate of male NSG mice (6- to 8-week old from the Jackson Lab) on day 0 as previously described [56]. Briefly, the abdomen was cleaned with iodine solution, and a 1-cm midline incision was created to expose the prostate gland. A 29-gauge needle and a 1-mL disposable syringe were used for the injection of the cell suspension. The needle was inserted into the middle portion of the right anterior lobe, and then was directed towards the cranial portion of the lobe. The abdominal wound was closed in 2 layers with surgical sutures. Starting on Day 7, NP-G2-044 or the control solvent was given once a day for 5 days a week by oral gavage. […] The death of the mice was used as the endpoint.

[7] = tested on: MDA-MB-231 triple-negative breast cancer cells; parameters: method as in PMID 26081695, PMID 27071719; conditions: MDA-MB-231 cells; cited from earlier work
[8] = treatment from Day 49, vs control group

Cc1occc1C(=O)Nc1nn(Cc2ccc(C(F)(F)F)cc2)c2ccccc12 [NP-G2-044]
inhibition of lung metastasis ([1]; 100 mg/kg twice a day): almost completely inhibition
inhibition of lung metastasis ([1]; 300 mg/kg once a day): almost complete inhibition
IC50, metastasized tumor cells in the lungs ([1]; once a day): 78.7 mg/kg
IC50, metastasized tumor cells in the lungs ([1]; twice a day): 29.2 mg/kg
tolerability of dosage regimen ([1]; mouse, in vivo): well tolerated with no signs of overt toxicity
primary tumor growth (HT lymphoma cells): decreased
overall survival (HT lymphoma cells; logrank p = 0.002): increased
metastasis of implanted lymphoma cells to the liver (U2932 lymphoma cells; livers dissected on Day 67): blocked the metastasis to the liver
increase of median overall survival (U2932 lymphoma cells; [8]): 79%
overall survival (U2932 lymphoma cells; [8]): increased
primary tumor growth (U2932 lymphoma cells; [8]): decreased
nuclear translocation of the p65 subunits [2]: also observed
growth sensitivity [3]: sensitive
growth sensitivity [4]: sensitive
growth sensitivity [5]: sensitive
growth sensitivity (Ly1 lymphoma cells): insensitive
increase of median overall survival ([6]; male NSG mice, oral gavage 5 days per week from Day 7, compared with control group, log-rank p < 0.001): 50%
tolerability of dosage regimen ([6]; mouse, in vivo, po): well tolerated with no signs of overt toxicity
induction of apoptosis [7]: did not induce the apoptosis
